In the assay the test system is IL-2 secretion by Jurkat T cells. In words: Inhibition of IL-2 secretion. Type of assay: cell-based. The settings on record: Homo sapiens; Jurkat T cells stimulated with PHA, 20 to 24 hours, IL-2 by ELISA. Here is the method: The CRAC channel modulatory activity of the compounds were thus evaluated by measuring the secretion of IL-2 by antigen stimulated T-cells in vitro. Alternatively, such activity can also be evaluated by assay methods known to one skilled in the art.
Inhibition of IL-2 secretion: Jurkat T cells were seeded at a density of 0.5 to 1 million cells per well in RPMI medium. Test compounds from this invention were added to the cells at different concentrations. This was followed by the addition of PHA, a T cell mitogen after 10 minutes. The cells were then incubated for 20 to 24 hours in a CO2 incubator at 37° C. After incubation with the compounds, cells were centrifuged, the supernatant was collected and processed for ELISA to quantitate the amount of IL-2 secreted. A commercial ELISA kit (R&D Systems, Inc. Minneapolis, Minn., USA) was used to estimate the IL-2 concentrations. Amount of IL-2 secreted by cells stimulated with PHA was considered as a 100% maximal signal and the decrease in amount of IL-2 secreted by cells treated with the test compounds was expressed as percent inhibition of the maximal signal. The dose response data was analyzed using 4-parametric sigmoidal dose response (variable slope) curve-fit.
A general note: ELISA stands for enzyme-linked immunosorbent assay.

Data on 32 molecules can be found in US9725463B2, “Substituted heterocyclic compounds as CRAC modulators” (LUPIN LIMITED, priority 2013, dated 2017).

A word on the IC50: it is the point on the concentration scale where inhibition reaches its midpoint.

`CCc1cc2c(cc1-c1ccc(C(=O)Nc3c(F)cccc3F)s1)oc(=O)n2C` [Example 73, N-(2,6-Difluorophenyl)-5-(5-ethyl-3-methyl-2-oxo-2,3-dihydrobenzo [d]oxazol-6-yl) thiophene-2-carboxamide]: the IC50 lay in the range of 25 to 50 nM.

`Cn1c(=O)oc2cc(-c3ccc(C(=O)Nc4c(F)cccc4F)s3)c(C3CC3)cc21` [Example 74, 5-(5-Cyclopropyl-3-methyl-2-oxo-2,3-dihydrobenzo [d]oxazol-6-yl)-N-(2,6-difluorophenyl) thiophene-2-carboxamide] came in with an IC50 of 50 to 100 nM.

As for `Cc1cc2c(cc1-c1ccc(C(=O)Nc3c(F)cccc3F)s1)oc(=O)n2C` [Example 75, N-(2,6-Difluorophenyl)-5-(3,5-dimethyl-2-oxo-2,3-dihydrobenzo[d]oxazol-6-yl)thiophene-2-carboxamide], the half-maximal inhibitory concentration (IC50) fell in the range of 25 to 50 nM.

The molecule `Cc1cc2oc(=O)n(C(F)F)c2cc1-c1ccc(NC(=O)c2c(F)cccc2F)cn1` [Example 76, N-(6-(3-(Difluoromethyl)-6-methyl-2-oxo-2,3-dihydrobenzo[d]oxazol-5-yl)pyridin-3-yl)-2,6-difluorobenzamide] had an IC50 of 25 to 50 nM.

For `Cc1cc2oc(=O)n(C(F)F)c2cc1-c1ccc(NC(=O)c2c(F)cccc2F)nc1` [Example 77, N-(5-(3-(Difluoromethyl)-6-methyl-2-oxo-2,3-dihydrobenzo[d]oxazol-5-yl)pyridin-2-yl)-2,6 difluorobenzamide], the IC50 is < 25 nM.

Consider `Cc1cc2oc(=O)n(C(F)F)c2cc1-c1cnc(NC(=O)c2c(F)cccc2F)cn1` [Example 78, N-(5-(3-(Difluoromethyl)-6-methyl-2-oxo-2,3-dihydrobenzo[d]oxazol-5-yl)pyrazin-2-yl)-2,6-difluorobenzamide], for which the concentration for half-maximal inhibition (IC50) is < 25 nM.

With `CCc1cc2oc(=O)n(C)c2cc1-c1cnc(NC(=O)c2c(F)cccc2F)cn1` [Example 80, N-(5-(6-Ethyl-3-methyl-2-oxo-2,3-dihydrobenzo[d]oxazol-5-yl)pyrazin-2-yl)-2,6-difluoro benzamide], the IC50 fell in the range of 50 to 100 nM.

On to `CCc1cc2oc(=O)n(C)c2cc1-c1ccc(NC(=O)c2c(F)cccc2F)cn1` [Example 81, N-(6-(6-Ethyl-3-methyl-2-oxo-2,3-dihydrobenzo [d]oxazol-5-yl)pyridin-3-yl)-2,6-difluoro benzamide], for which the IC50 lay in the range of 50 to 100 nM.

For `CCc1cc2oc(=O)n(C)c2cc1-c1ccc(NC(=O)c2c(F)cccc2F)nc1` [Example 82, N-(5-(6-Ethyl-3-methyl-2-oxo-2,3-dihydrobenzo[d]oxazol-5-yl)pyridin-2-yl)-2,6-difluoro benzamide], the IC50 is < 25 nM.

In the case of `Cn1c(=O)oc2cc(C3CC3)c(-c3ccc(NC(=O)c4c(F)cccc4F)nc3)cc21` [Example 83, N-(5-(6-Cyclopropyl-3-methyl-2-oxo-2,3-dihydrobenzo [d]oxazol-5-yl)pyridin-2-yl)-2,6-difluorobenzamide], the IC50 fell in the range of 25 to 50 nM.

As to `Cn1c(=O)oc2cc(C3CC3)c(-c3cnc(NC(=O)c4c(F)cccc4F)cn3)cc21` [Example 84, N-(5-(6-Cyclopropyl-3-methyl-2-oxo-2,3-dihydrobenzo [d]oxazol-5-yl)pyrazin-2-yl)-2,6-difluorobenzamide], the IC50 fell in the range of 25 to 50 nM.

Take `CCc1cc2oc(=O)n(C)c2cc1-c1ccc(NC(=O)c2c(F)cccc2F)cc1` [Example 85, N-(4-(6-Ethyl-3-methyl-2-oxo-2,3-dihydrobenzo [d]oxazol-5-yl)phenyl)-2,6-difluorobenzamide]: the IC50 was < 25 nM.

Take `Cn1c(=O)oc2cc(-c3cnc(NC(=O)c4c(F)cccc4F)cn3)c(C3CC3)nc21` [Example 86, N-(5-(5-Cyclopropyl-3-methyl-2-oxo-2,3-dihydrooxazolo[4,5-b]pyridin-6-yl)pyrazin-2-yl)-2,6-difluorobenzamide]: the 50% inhibitory concentration (IC50) is 25 to 50 nM.

As for `CCc1cc2oc(=O)n(C)c2cc1-c1ccc(C(=O)Nc2c(F)cccc2F)s1` [Example 88, N-(2,6-Difluorophenyl)-5-(6-ethyl-3-methyl-2-oxo-2,3-dihydrobenzo [d]oxazol-5-yl) thiophene-2-carboxamide], the IC50 was < 25 nM.

Take `Cn1c(=O)oc2cc(C3CC3)c(-c3ccc(C(=O)Nc4c(F)cccc4F)s3)cc21` [Example 89, 5-(6-Cyclopropyl-3-methyl-2-oxo-2,3-dihydrobenzo[d]oxazol-5-yl)-N-(2,6-difluorophenyl) thiophene-2-carboxamide]: the IC50 is < 25 nM.

With `CCc1cc2c(cc1-c1ccc(C(=O)Nc3c(F)cncc3F)cc1)oc(=O)n2C` [Example 90, N-(3,5-Difluoropyridin-4-yl)-4-(5-ethyl-3-methyl-2-oxo-2,3-dihydrobenzo [d]oxazol-6-yl) benzamide], the IC50 fell in the range of 25 to 50 nM.

On to `CCc1cc2oc(=O)n(C)c2cc1-c1ccc(C(=O)Nc2c(F)cncc2F)cc1` [Example 92, N-(3,5-Difluoropyridin-4-yl)-4-(6-ethyl-3-methyl-2-oxo-2,3-dihydrobenzo [d]oxazol-5-yl) benzamide], for which the IC50 was < 25 nM.

With `Cn1c(=O)oc2cc(C3CC3)c(-c3ccc(C(=O)Nc4c(F)cncc4F)cc3)cc21` [Example 93, 4-(6-Cyclopropyl-3-methyl-2-oxo-2,3-dihydrobenzo[d]oxazol-5-yl)-N-(3,5-difluoropyridin-4-yl)benzamide], the IC50 was < 25 nM.

As to `Cn1c(=O)oc2cc(C3CC3)c(-c3ccc(NC(=O)c4c(F)cccc4F)cc3)cc21` [Example 94, N-(4-(6-Cyclopropyl-3-methyl-2-oxo-2,3-dihydrobenzo [d]oxazol-5-yl)phenyl)-2,6-difluorobenzamide], the concentration for half-maximal inhibition (IC50) was < 25 nM.

Take `O=C(Nc1ccc(-c2ccc3c(oc(=O)n3C(F)F)c2C2CC2)cc1)c1c(F)cccc1F` [Example 95, N-(4-(7-Cyclopropyl-3-(difluoromethyl)-2-oxo-2,3-dihydrobenzo[d]oxazol-6-yl)phenyl)-2,6-difluorobenzamide]: the IC50 is < 25 nM.

`Cn1c(=O)oc2c(C3CC3)c(-c3ccc(NCc4c(F)cccc4F)cc3)ccc21` [Example 100, 7-Cyclopropyl-6-(4-((2,6-difluorobenzyl)amino)phenyl)-3-methylbenzo [d]oxazol-2(3H)-one] gave an IC50 of 25 to 50 nM.

For `Cn1c(=O)oc2c(C3CC3)c(-c3ccc(NC(=O)c4c(F)cccc4Cl)cc3)ccc21` [Example 101, 2-Chloro-N-(4-(7-cyclopropyl-3-methyl-2-oxo-2,3-dihydrobenzo[d]oxazol-6-yl)phenyl)-6-fluorobenzamide], the IC50 is < 25 nM.

Molecule `Cn1c(=O)oc2c(C3CC3)c(-c3ccc(NC(=O)c4ccccc4Cl)cc3)ccc21` [Example 103, 2-Chloro-N-(4-(7-cyclopropyl-3-methyl-2-oxo-2,3-dihydrobenzo[d]oxazol-6-yl)phenyl)benzamide] came in with an IC50 of 50 to 100 nM.

`CN1C(=O)COc2c1ccc(-c1ccc(NC(=O)c3c(F)cccc3F)cc1)c2C1CC1` [Example 107, N-(4-(8-Cyclopropyl-4-methyl-3-oxo-3,4-dihydro-2H-benzo[b][1,4]oxazin-7-yl)phenyl)-2,6-difluorobenzamide]: the IC50 was < 25 nM.

In the case of `CN1C(=O)COc2c1ccc(-c1cnc(NC(=O)c3c(F)cccc3F)cn1)c2C1CC1` [Example 109, N-(5-(8-Cyclopropyl-4-methyl-3-oxo-3,4-dihydro-2H-benzo[b][1,4]oxazin-7-yl)pyrazin-2-yl)-2,6-difluorobenzamide], the IC50 lay within 50 to 100 nM.

`CN1C(=O)COc2c1ncc(-c1ccc(NC(=O)c3c(F)cccc3F)cc1)c2C1CC1` [Example 112, N-(4-(8-Cyclopropyl-4-methyl-3-oxo-3,4-dihydro-2H-pyrido[3,2-b][1,4]oxazin-7-yl)phenyl)-2,6-difluorobenzamide] gave an IC50 of 25 to 50 nM.

Turning to `CN1C(=O)COc2cc(-c3ccc(NC(=O)c4c(F)cccc4F)cc3)c(C3CC3)cc21` [Example 113, N-(4-(6-Cyclopropyl-4-methyl-3-oxo-3,4-dihydro-2H-benzo[b][1,4]oxazin-7-yl)phenyl)-2,6-difluorobenzamide], the IC50 was < 25 nM.

For the molecule `CN1C(=O)COc2cc(-c3ccc(NCc4c(F)cccc4F)cc3)c(C3CC3)cc21` [Example 114, 6-Cyclopropyl-7-(4-((2,6-difluorobenzyl)amino)phenyl)-4-methyl-2H-benzo[b][1,4]oxazin-3(4H)-one], the IC50 is < 25 nM.

`CN1C(=O)COc2cc(-c3ccc(NC(=O)c4c(F)cccc4F)nc3)c(C3CC3)cc21` [Example 115, N-(5-(6-Cyclopropyl-4-methyl-3-oxo-3,4-dihydro-2H-benzo[b][1,4]oxazin-7-yl)pyridin-2-yl)-2,6-difluorobenzamide]: the IC50 was < 25 nM.

Consider `CN1C(=O)COc2cc(-c3cnc(NC(=O)c4c(F)cccc4F)cn3)c(C3CC3)cc21` [Example 116, N-(5-(6-Cyclopropyl-4-methyl-3-oxo-3,4-dihydro-2H-benzo[b][1,4]oxazin-7-yl)pyrazin-2-yl)-2,6-difluorobenzamide], for which the IC50 is < 25 nM.

In turn, `CN1C(=O)COc2cc(-c3cnc(NC(=O)c4c(F)cccc4Cl)cn3)c(C3CC3)cc21` [Example 117, 2-Chloro-N-(5-(6-cyclopropyl-4-methyl-3-oxo-3,4-dihydro-2H-benzo[b][1,4]oxazin-7-yl)pyrazin-2-yl)-6-fluorobenzamide] displayed an IC50 of 25 to 50 nM.

`CN1C(=O)COc2cc(-c3ccc(C(=O)Nc4c(F)cncc4F)cc3)c(C3CC3)cc21` [Example 119, 4-(6-Cyclopropyl-4-methyl-3-oxo-3,4-dihydro-2H-benzo[b][1,4]oxazin-7-yl)-N-(3,5-difluoropyridin-4-yl)benzamide] registered a concentration for half-maximal inhibition (IC50) of 100 to 500 nM.
